# Earlier results as cited in patent US9102664B2, “Process for the preparation of triazole antifungal drug, its intermediates and polymorphs thereof” (MSN Laboratories Limited, priority 2011, dated 2015).
# Columns and labels:
# [1] = produced per U.S. Pat. No. 5,661,151 using 6N HCl in methanol
# [2] = under the conditions investigated in WO 99/18097
SMILES,stability of amorphous form [1],stability of crystalline form [2]
"CC[C@@H]([C@H](C)O)n1ncn(-c2ccc(N3CCN(c4ccc(OC[C@@H]5CO[C@@](Cn6cncn6)(c6ccc(F)cc6F)C5)cc4)CC3)cc2)c1=O [Amorphous form of posaconazole, posaconazole]",not stable,–
"CC[C@@H]([C@H](C)O)n1ncn(-c2ccc(N3CCN(c4ccc(OC[C@@H]5CO[C@@](Cn6cncn6)(c6ccc(F)cc6F)C5)cc4)CC3)cc2)c1=O [form II, posaconazole]",–,unstable
